The subject of one data set is PC-3 cells. Briefly: In vitro invasion assay in PC-3 cells. As to conditions: Homo sapiens, 48 hours, compared to the control. Type of data set: cell-based. Here is the method:
Transwell chambers coated with GFR Matrigel (BD Biosciences) were used for measurement of cell invasion. The matrigel was solidified at 37° C. in a humidified incubator the day before the assay. PC3 cells (1×10^3 cells per well) were grown in serum-free RPMI1640 media in the upper side of the insert. The lower well was filled with RPMI 1640 supplemented with 10% FBS with a Limk inhibitor (1 μM). PC3 cells were incubated at 37° C. in a humidified atmosphere containing 5% CO2 for 48 h. Then transwell membrane was rinsed three times with PBS, and the cells were fixed in 2.5% EM grade glutaraldehyde for 15 min at room temperature (RT) with no shaking. After removing glutaraldehyde by aspirating, the cells were permeabilized with 0.5% Triton X-100 in PBS for 3 min at RT, and they were rinsed three times with PBS. Then, the cells were stained by Gill's hematoxylin No. 1 for 15 min at RT, and they were washed by distilled water for three times. To remove any residual stain, the cells were washed by acid alcohol for 3 minutes and then rinsed by distilled water twice. The cells were exposed with 0.04% NH4OH until a blue color is observed on the membrane and then rinsed by distilled water twice. The membranes were dried overnight, and the stained cells were visualized under Leica DMI3000B microscope.

The target in a further data set is T1, P450 1A2 (Homo sapiens, UniProt P05177).
T1 sequence (P05177 1-516): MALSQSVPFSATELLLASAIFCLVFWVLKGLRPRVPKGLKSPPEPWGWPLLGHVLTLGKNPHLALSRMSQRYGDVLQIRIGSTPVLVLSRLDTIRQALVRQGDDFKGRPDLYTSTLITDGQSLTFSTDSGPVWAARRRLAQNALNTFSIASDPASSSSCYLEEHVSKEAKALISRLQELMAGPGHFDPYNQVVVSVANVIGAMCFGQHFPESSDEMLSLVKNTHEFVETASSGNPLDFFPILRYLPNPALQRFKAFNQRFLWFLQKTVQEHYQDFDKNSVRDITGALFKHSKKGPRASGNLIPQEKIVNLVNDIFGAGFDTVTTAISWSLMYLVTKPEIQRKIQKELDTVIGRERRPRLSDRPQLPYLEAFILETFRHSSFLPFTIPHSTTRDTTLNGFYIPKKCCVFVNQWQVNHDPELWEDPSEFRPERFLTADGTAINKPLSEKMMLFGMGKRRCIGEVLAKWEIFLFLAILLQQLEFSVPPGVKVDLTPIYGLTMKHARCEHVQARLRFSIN

Data set [1] deals with p-cofilin in PC-3 prostate cancer cell lines. Briefly: Cofilin phosphorylation Western blot in PC-3 cells stimulated by HGF. To be noted: HGF-stimulated PC-3 cells; 50 nM. In kind it is cell-based. On the procedure: PC3 cells were cultured at a density of 0.5×10^6 cells/mL in 60 mm culture dishes in 10% FBS RPMI1640 media. Then, the cells were treated with DMSO and the indicated concentration of Limk inhibitors. After incubating for 24 h, the cells were rinsed with ice-cold PBS twice and collected by spinning down at 4° C. in 10,000 rpm for 5 min Cellular lysates were prepared by suspending cells in SDS sample buffer, 120 mmol/L Tris, 4% SDS, 20% glycerol, 0.1 mg/mL bromophenol blue, and 100 mmol/L DTT (pH 6.8). After brief sonication, the lysates were heated at 95° C. for 5 minutes. The cell lysates were separated by 12% SDS-PAGE and transferred to Immobilon-P membranes (Millipore Corp) Immunostaining was done using antibodies specific for phospho-Cofilin (Cell Signaling, #3313) and β-Actin (GeneScript, #A00702) antibodies and the corresponding second antibodies for whole immunoglobulins from mouse or rabbit (Amersham Biosciences). Immunoreactive proteins were detected by chemoluminescence using the Pierce ECL Western Blotting Substrate (Thermo Scientific). We quantified the actual levels of proteins by using the Multigauge ver 3.0 software (Fujifilm). The gels were stained with Coomassie Brilliant Blue R-250 (0.25%) for 1 hour and then destained (all solutions from Bio-Rad) to check the loading amount of protein samples on the gels.
A general note: Immunoblotting shows a protein as a band on a membrane.

Data set [2] concerns HSV-1 (Herpes simplex virus). In kind it is cell-based. As to conditions: Vero cells.
Data set [3] relates to surface CD4 and CXCR4 on CEM-SS T cells. Kind of data set: Surface staining of CD4 and CXCR4. In kind it is cell-based, human. Here is the method: FIG. 11. R10015 inhibits HIV-1 DNA synthesis, nuclear migration, and virion release. a, Effects of R10015 on surface CD4 and CXCR4 expression. […] CEM-SS T cells were treated with R10015, and then infected with BlaM-Vpr tagged HIV-1(NL4-3) or HIV-1(VSV-G) to measure viral entry. c. R10015 inhibits viral DNA synthesis. CEM-SS T cells were treated with R10015 for 1 hour, and then infected with a single-cycle HIV-1(Env) for 2 hours in the presence of R10015. Following infection, cells were washed to remove HIV-1 and R10015. Viral DNA synthesis was measured by real-time PCR. d. R10015 inhibits 2-LTR circle DNA formation. Cells were similar treated with R10015 and infected. 2-TLR circles were quantified by real-time PCR. e. R10015 inhibits virion release. Cells were infected with HIV-1(Env) for 2 hours, washed, incubated for 12 hours, and then treated with R10015. Virion release was quantified by measuring p24 in the supernatant.
Cells were stained with FITC-labeled monoclonal antibody against human CD4 (clone PRA-T4) or CXCR4 (clone 12G5) (BD Biosciences). Cells were stained on ice in PBS+0.1% BSA for 30 minutes, washed with cold PBS-0.5% BSA, and then analyzed on a FACSCalibur (BD Biosciences).

Data set [4] has as its system single-cycle HIV-1(Env) in CEM-SS T cells. In kind it is cell-based. As to conditions: all time points.
Data set [5] concerns VEEV (venezuelan equine encephalitis virus). Type of data set: cell-based. To be noted: Vero cells.

As a reminder, the inhibition is the change of the read-out against control, counted positive when it falls.

In the data set on PC-3 cells, `Cc1c[nH]c2ncnc(-c3ccc(NC(=O)N(CCO)c4ccccc4)cc3)c12` [Compound 18b, 1-(2-Hydroxyethyl)-3-(4-(5-methyl-7H-pyrrolo[2,3-d]pyrimidin-4-yl)phenyl)-1-phenylurea] had an inhibition at 1 µM of 76%. Further, the “P450 % inh. at 10 μM 1A2” value on P450 1A2 is given as −16/14/5/13%. In addition, the “inhibition of cofilin phosphorylation in PC-3 cells (Western blot)” value in data set [1] is “significant inhibition”.
Consider `COC(=O)c1ccc2[nH]c(C3CCN(c4ncnc5[nH]cc(Cl)c45)CC3)nc2c1` [Compound R10015, Methyl 2-(1-(5-chloro-7H-pyrrolo[2,3-d]pyrimidin-4-yl)piperidin-4-yl)-1Hbenzo[d]imidazole-5-carboxylate], for which the HSV-1 infection result in data set [2] is given as “inhibited”. Further, the “surface expression of CD4 and CXCR4” value in data set [3] (1 hour treatment) is reported as “did not alter”. The “surface density of CD4” value in data set [3] (prolonged treatment (4 hours)) is “slightly decreased”. The “viral DNA synthesis” value in data set [4] was “inhibited”. Besides, the VEEV infection entry in data set [5] is “inhibited”.

Source of the values: patent US20190292189A1, “LIM KINASE INHIBITORS” (VIRONGY, LLC, priority 2016, published 2019).
